According to ChEMBL document CHEMBL5113400, “Design, synthesis, and biological evaluation of trizole-based heteroaromatic derivatives as Bcr-Abl kinase inhibitors” (Eur J Med Chem, 2022):

Columns and labels:
K562/Adr [1] = assay: Antiproliferative activity against human Adriamycin-resistant K562/Adr cells assessed as inhibition of cell growth at 30 uM incubated for 48 hrs by MTT assay; format: functional
K562 = assay: Antiproliferative activity against human K562 cells assessed as inhibition of cell growth incubated for 48 hrs by MTT assay; format: functional, cell-based; conditions: K562, 48 h
Bcr/Abl fusion protein [2] = target: Bcr/Abl fusion protein (Homo sapiens, UniProt P00519); assay: Inhibition of wild type Bcr-Abl (unknown origin) incubated for 1 hr in presence of ATP by ADP-Glo kinase assay; format: protein assay
Bcr/Abl fusion protein [3] = target: Bcr/Abl fusion protein (Homo sapiens, UniProt P00519, T315I); assay: Inhibition of Bcr-Abl T315I mutant (unknown origin) incubated for 1 hr in presence of ATP by ADP-Glo kinase assay; format: protein assay
BaF3 = assay: Antiproliferative activity against mouse BaF3 cells expressing Bcr-Abl T315I mutant assessed as inhibition of cell growth at 30 uM incubated for 72 hrs by CellTiter-Glo luminescent assay; format: functional
K562/Adr [4] = assay: Antiproliferative activity against human Adriamycin-resistant K562/Adr cells assessed as inhibition of cell growth incubated for 48 hrs by MTT assay; format: functional, cell-based

| Structure (SMILES) | inhibition at 30 µM (K562/Adr [1]) [%] | IC50 (K562) [nM] | IC50 (Bcr/Abl fusion protein [2]) [nM] | IC50 (Bcr/Abl fusion protein [3]) [nM] | inhibition at 30 µM (BaF3) [%] | IC50 (K562/Adr [4]) [nM] |
| --- | --- | --- | --- | --- | --- | --- |
| CC(C)(C)OC(=O)N1C[C@@H](n2cc(-c3ccc4nc(N)sc4n3)nn2)C[C@H]1C(=O)Nc1ccc(Br)cc1 | 31.7 | 29200 | 6.88 | 25.2 | – | – |
| Nc1n[nH]c2cc(-c3cn([C@@H]4CN[C@H](C(=O)Nc5ccc(Cl)c(C(F)(F)F)c5)C4)nn3)ccc12 | 48.2 | 8320 | 15 | 137 | 31.2 | – |
| CCN1CCN(c2cc(NC(=O)[C@@H]3C[C@H](n4cc(-c5ccc6c(N)n[nH]c6c5)nn4)CN3)ccc2Cl)CC1 | – | 180 | 8.71 | 84.8 | 20 | 12600 |
| CC(C)(C)OC(=O)N1C[C@@H](n2cc(-c3ccc4nc(N)sc4n3)nn2)C[C@H]1C(=O)Nc1ccc(Cl)cc1Cl | 28.3 | 8940 | 14.7 | 410 | 86.7 | – |
| CCN(CC)C(=O)c1cncc(-c2cn([C@@H]3CN[C@H](C(=O)Nc4ccc(Cl)c(C(F)(F)F)c4)C3)nn2)c1 | 32.4 | 27600 | 14.5 | 261 | – | – |
| CC(=O)Nc1n[nH]c2cc(-c3cn([C@@H]4CN[C@H](C(=O)Nc5ccc(Br)cc5)C4)nn3)ccc12 | – | 3830 | 5.85 | 343 | 21.8 | 1000 |
| Nc1n[nH]c2cc(-c3cn([C@@H]4CN[C@H](C(=O)Nc5ccc(Cl)cc5Cl)C4)nn3)ccc12 | 29.4 | 28400 | 8.6 | 3670 | 19.3 | – |
| CC(C)(C)OC(=O)N1C[C@@H](n2cc(-c3ccc(N)nc3)nn2)C[C@H]1C(=O)Nc1ccc(Cl)c(C(F)(F)F)c1 | 48.6 | 4710 | 0.94 | 125 | 66.7 | – |
| Nc1nc2ccc(-c3cn([C@@H]4CN[C@H](C(=O)Nc5ccc(Br)cc5)C4)nn3)nc2s1 | 35.9 | 24400 | 27.1 | 178 | 27.5 | – |
| CC(C)(C)OC(=O)N1C[C@@H](n2cc(-c3ccc4nc(N)sc4n3)nn2)C[C@H]1C(=O)Nc1ccc(Cl)c(C(F)(F)F)c1 | 27.4 | 10800 | 10.6 | 667 | 52.3 | – |
| O=C(Nc1nc2ccc(-c3cn([C@@H]4CN[C@H](C(=O)Nc5ccc(F)c(F)c5)C4)nn3)nc2s1)C1CC1 | 29.5 | 40700 | 30.1 | 1340 | – | – |
| CC(=O)Nc1ccc(-c2cn([C@@H]3CN[C@H](C(=O)Nc4ccc(Cl)c(C(F)(F)F)c4)C3)nn2)cn1 | 33.6 | 8980 | 3.45 | 127 | 26.5 | – |
| Nc1nc2ccc(-c3cn([C@@H]4CN[C@H](C(=O)Nc5ccc(Cl)c(C(F)(F)F)c5)C4)nn3)nc2s1 | – | 26200 | 15.6 | 24.7 | – | 187000 |
| Nc1nc2ccc(-c3cn([C@@H]4CN[C@H](C(=O)Nc5ccc(Cl)cc5Cl)C4)nn3)nc2s1 | 42.2 | 24500 | 9.45 | 118 | 19.5 | – |
| O=C(Nc1n[nH]c2cc(-c3cn([C@@H]4CN[C@H](C(=O)Nc5ccc(Br)cc5)C4)nn3)ccc12)C1CC1 | 39.6 | 8080 | 5.53 | 144 | 20 | – |
